Earlier results on 14 molecules are cited in article PMC11238383, “A review on the cultivation, bioactive compounds, health-promoting factors and clinical trials of medicinal mushrooms Taiwanofungus camphoratus, Inonotus obliquus and Tropicoporus linteus” (Fungal Biology and Biotechnology, 2024).

pIC50: −log10 of the molar value. ≈ marks a conversion by molar mass, not a printed value.

One data set relates to H1264. Set-up: method as in Baek et al. [203]. Particulars: ref Baek et al. [203].
The subject of another data set is H1299. Further details: method as in Baek et al. [203]. Particulars: ref Baek et al. [203].
Another data set deals with Calu-6. Set-up: method as in Baek et al. [203]. To be noted: ref Baek et al. [203].
Data set [1] deals with Streptozotocin-induced diabetic C57BL/6J mice. Set-up: method as in Kuo et al. [178]. Particulars: ref Kuo et al. [178].
In the next data set the test system is C57BL/6J mice. To be noted: 40 mg/kg/day versus Metformin 300 mg/kg/day; ref [174].
Data set [2] deals with C2C12 cells. Set-up: method as in Kuo et al. [174]. To be noted: ref Kuo et al. [174].
Data set [3] relates to Hepatitis C virus (HCV) protease. Set-up: method as in My et al. [190]. To be noted: ref My et al. [190].
The subject of data set [4] is Obesity-induced Wistar rats. Further details: method as in Chen et al. [181]. To be noted: ref Chen et al. [181].
The subject of the next data set is breast cancer cells. Further details: method as in PMID 25656647. Particulars: ref [71].
The subject of data set [5] is Oxidative stress-induced HepG2 cells. Further details: method as in Kumar et al. [180]. Particulars: pretreatment, after 24 h; ref Kumar et al. [180].
The subject of data set [6] is Chronic alcohol-induced liver disease in C57BL/6J (B6) mice. Further details: method as in Chang et al. [182]. To be noted: ref Chang et al. [182].
For data set [7], the system named is C2C12 cells. Set-up: method as in Kuo et al. [177]. Particulars: in vitro; ref Kuo et al. [177].
Data set [8] deals with Streptozotocin-induced diabetic C57BL/6J mice. Set-up: method as in Kuo et al. [177]. Particulars: in vivo; ref Kuo et al. [177].
For data set [9], the system named is High-fat diet-induced C57BL/6J mice. Further details: method as in Lin et al. [175]. Particulars: ref Lin et al. [175].
The test system is the same in data set [10]. Set-up: method as in Lin et al. [175]. To be noted: ref Lin et al. [175]. This is another data set of the same source.
The subject of data set [11] is Ultraviolet B-irradiated BALB/cAnN.Cg-Foxn1nu/CrlNarl hairless mice. Further details: method as in Kuo et al. [184]. Particulars: topical 25 and 100 μM; ref Kuo et al. [184].
Data set [12] has as its system High-fat diet-induced C57BL/6J mice. Further details: method as in Kuo et al. [178]. Particulars: ref Kuo et al. [178].
The test system of data set [13] is MCF7, MDA-MB-231, T24 and J82 cells. Set-up: method as in Lu et al. [232]. To be noted: ref Lu et al. [232].
Data set [14] concerns Oleic and palmitic acids (O/P) lipid accumulation-induced HepG2 cells. Further details: method as in Chiu et al. [138]. Particulars: ref Chiu et al. [138].
For a further data set, the system named is aldose reductase. Further details: method as in Lee et al. [136]. Particulars: ref Lee et al. [136].
The subject of another data set is 3CL protease. Further details: method as in Li et al. [35], [38]. To be noted: ref Li et al. [35], [38].
Data set [15] concerns Severe acute respiratory syndrome coronavirus 2 (SARS-CoV-2) virus-infected HepG2 cells. Further details: method as in Li et al. [35], [38]. To be noted: ref Li et al. [35], [38].
The target of a further data set is H1N1 neuraminidase. Particulars: ref [13].
Another data set concerns Influenza A H1N1 virus. Further details: method as in Hwang et al. [13]. Particulars: 10 uM; ref Hwang et al. [13].
For data set [16] the following is noted: ref Lee et al. [226].
The test system of data set [17] is LPS-stimulated RAW264.7 cells. Set-up: method as in Huang et al. [212], [243]. To be noted: ref Huang et al. [212], [243].
The test system of data set [18] is Streptozotocin-induced diabetic C57BL/6J mice. Further details: method as in Lin et al. [176]. To be noted: ref Lin et al. [176].
Data set [19] concerns H2O2)-injured human neuroblastoma cells. Set-up: method as in PMID 33084385. Particulars: ref [108].
Data set [20] has as its system Carbon tetrachloride (CCl4) liver damage induced-Sprague Dawley rats. Set-up: method as in Parfenov et al. [216]. To be noted: I. obliquus; ref Parfenov et al. [216].
A further data set relates to Chang liver cells. Set-up: method as in Parfenov et al. [216]. Particulars: I. obliquus; 10^−5 and 10^−3 g/L; ref Parfenov et al. [216].

Usually IC50 stands for the concentration needed to halve the response being measured. On to `CC(C)=CCC[C@@H](C=O)[C@H]1CC[C@@]2(C)C3=C(CC[C@]12C)[C@@]1(C)CC[C@H](O)C(C)(C)[C@@H]1CC3` [3β-hydroxylanosta-8,24-dien-21-al], for which the IC50 was 90.9 µg/mL (≈ 206 µM) with H1264, 128.0 µg/mL (≈ 290 µM) with H1299 and 75.1 µg/mL (≈ 170 µM) in the data set with Calu-6.
As to `C=C(CC[C@@H](C)[C@H]1CC[C@H]2C3=C(C(=O)C[C@]12C)[C@@]1(C)CC[C@@H](O)[C@](C)(O)[C@@H]1C[C@@H]3O)C(C)C(=O)O` (some centres unmarked) [Antcin K], in [1], the “FAS, CPT-1a, PPARα expression” value is “Fatty acid synthase (FAS) expression levels declined while hepatic expression levels of carnitine palmitoyl transferase 1a (CPT-1a) and peroxisome proliferator-activated receptor α (PPARα) rose”. Besides, in the data set with C57BL/6J mice, the antihyperglycemic effect entry is reported as “comparable to Metformin”. For the same molecule, the “GLUT4 and phospho-Akt expression” value in the data set with C2C12 cells [2] was “Enhance membrane glucose transporter 4 (GLUT4) and phosphor-Akt expressions”.
For `CC(C)=CCOc1ccc(C2=C(CC(C)C)C(=O)OC2=O)cc1` [Antrodin A], in data set [3], the “half-maximal inhibitory concentration (IC50)” value was “Antrodins A to E, except antrodin B, exhibited potent inhibitory effects against the HCV protease, with Antrodin A having the highest potency with a half-maximal inhibitory concentration (IC50) value of 0.9 µg/mL”.
For the molecule `COC1=C(OC)[C@H](O)[C@H](C/C=C(\C)CC/C=C(\C)CCC=C(C)C)[C@@H](C)C1=O` [Antroquinonol, antroquinonol], the hepatoprotective effect result in data set [4] is given as “Exerts hepatoprotective effects by inhibiting hepatic lipid accumulation”. Also, the migration and invasion result in the data set on breast cancer cells is “inhibit the migration and invasion of breast cancer cells”. Further, the “rise in ALT and AST caused by ethanol” value in data set [5] is “Antroquinonol pretreatment considerably and dose-dependently decreased the rise in ALT and AST caused by ethanol after 24 h in HepG2 cells”.
`CC(C)[C@@H](C)/C=C/[C@@H](C)[C@H]1CC[C@H]2C3=CCC4C[C@@H](O)CC[C@]4(C)C3=CC[C@]12C` (some centres unmarked) [Antrosterol]: the hepatoprotective findings result in [6] is “Reduction in serum/hepatic lipids, rise in output of fecal lipid/bile-acid output, amplified hepatic antioxidant activities, reduced serum alcohol level, decrease liver inflammation, fibrosis, serum AST/ALT and TNF-α/IL-1β”.
For the molecule `C=C(CC[C@@H](C(=O)O)[C@H]1CC[C@@]2(C)C3=CC[C@H]4C(C)(C)[C@@H](O)CC[C@]4(C)C3=CC[C@]12C)C(C)C` [Dehydroeburicoic acid], the GLUT4 expression entry with C2C12 cells [7] is “Higher expression of GLUT4”. Also, the “decrease in blood glucose level” value in data set [8] is listed as 43.6–46.5%.
In the case of `C=C(CC[C@@H](C(=O)O)[C@H]1CC[C@@]2(C)C3=C(CC[C@]12C)[C@@]1(C)CC[C@H](O)C(C)(C)[C@@H]1CC3)C(C)C` [Eburicoic acid], in [9], the “AMPK phosphorylation, Akt, membrane GLUT4” value was “Increase AMPK phosphorylation, Akt, and membrane GLUT4 level”. For the same molecule, the “PPAR-α expression in the liver” value in data set [10] is “Increased expression of PPAR-α in the liver which facilitated fatty acid oxidation and the reduction of lipid levels”.
For `CC(C)[C@@H](C)/C=C/[C@@H](C)[C@H]1CC[C@H]2C3=CCC4C[C@@H](O)CC[C@]4(C)C3=CC[C@]12C` (stereo partly drawn) [Ergostatrien-3β-ol], the “MMP-1, IL-6, iNOS, NF-κB in skin” value in data set [11] is “Significant inhibition of metalloproteinase-1 (MMP-1), IL-6, iNOS and NF-κB in skin”. Moreover, the “visceral adipocyte size, hepatic ballooning” value in data set [12] was “Reduced visceral adipocyte size and induced hepatic ballooning degeneration”.
As to `CC(=O)/C=C(O)/C=C/c1ccc(O)c(O)c1` [Hispolon, hispolon], the “suppression of cancer cells” value in data set [13] is “Suppressed p53 mutant (MDA-MB-231, T24, and J82) and wild-type (MCF7) cells regardless of p53 status Apoptosis characterized by chromatin condensation and poly (ADP-ribose) polymerase (PARP) increase”.
Turning to `O=c1cc(O)cc([C@H]2c3c(cc(/C=C/c4ccc(O)c(O)c4)oc3=O)O[C@@H]2c2ccc(O)c(O)c2)o1` [Hypholomine B, hypholomine B], the lipid accumulation entry in [14] was “Significant reduction in lipid accumulation”. Further, the aldose reductase inhibition entry in the data set with aldose reductase is “capable of inhibiting aldose reductase”. The 3CL protease result in the data set on 3CL protease is “Inhibition of 3CL protease”. In addition, the ACE2 gene expression result in data set [15] was “Reduced the expression of angiotensin-converting enzyme 2 (ACE2) gene”.
For orientation: pIC50 means −log10 of the IC50, conventionally taken in molar units. For `CC1=CC(=O)/C(=C/c2ccc(O)c(O)c2)O1` [Inotilone, inotilone], at H1N1 neuraminidase, the pIC50 is 4.21 and the neuraminidase activity result was “inhibit neuraminidase activity”. In the data set with Influenza A H1N1 virus, the visible cytopathic effects was 10 uM of both inhibited the formation of visible cytopathic effects, with IC50 values lower than Oseltamivir. In data set [16], the antioxidant activity result was “Potent antioxidant activity, with higher antioxidant activity than BHA and Trolox in FRAP assay”. Moreover, the “NO, iNOS, NF-κB, MMP-9” value in data set [17] is “Inhibit NO production, iNOS, NF-κB, and MMP-9 expressions, and LPS-induced ERK, JNK, and p38 phosphorylation”.
Take `C=C(CC[C@@H](C(=O)O)[C@H]1C[C@H](O)[C@@]2(C)C3=C(CC[C@]12C)[C@@]1(C)CC[C@H](O)C(C)(C)[C@@H]1CC3)C(C)C` [Sulphurenic acid]: the “insulin and HbA1c” value in data set [18] was “Rise of insulin levels and reduction in the concentration of glycated hemoglobin (HbA1c)”. In addition, the “PPAR-α expression in the liver” value in [10] is “Increased expression of PPAR-α in the liver which facilitated fatty acid oxidation and the reduction of lipid levels”.
In the case of `CC1=CC(=O)C2(O1)c1c(cc(/C=C/c3ccc(O)c(O)c3)oc1=O)OC2c1ccc(O)c(O)c1` (centres unmarked) [inoscavin A], the cell viability entry in [19] is recorded as “improve cell viabilities”.
For the molecule Melanin, the liver damage findings entry in data set [20] is “Decrease in fat buildup, steatosis, necrosis”. In addition, in the data set on Chang liver cells, the “increase in viability of liver cells intoxicated with d-galactosamine” value was 2–2.5 times.
